The source of these data is patent US11925702B2, “Methods for extracting compound from ginseng, ginseng extract comprising the compound and composition for enhancing skin barrier comprising the same” (AMOREPACIFIC CORPORATION, priority 2022, dated 2024).

What all share (type): cell-based, human
In one assay the test system is Filaggrin (FLG) gene. Kind of assay: Filaggrin (FLG) gene expression in NHEK by Taqman real-time PCR. The settings on record: isolated compound added to NHEK culture media, concentration series (FIG. 5). How it is done: (§1) (1) Normal human epidermal keratinocytes (NHEK) were cultured in 6-well culture media. The anaerobic-naturally fermented ginseng extract of the preparation example and an unfermented fresh ginseng extract were respectively added to the NHEK media and cultured. After harvesting the cells on the 4th day, separating RNA therefrom, and synthesizing cDNA through RT-PCR (reverse transcriptional polymerase chain reaction), the synthesized cDNA was measured with respect to an expression level of the Filaggrin gene through Taqman real-time PCR, and the results are shown in FIG. 4.
(§2) (2) The compound represented by Chemical Formula 1-1, which was separated from the anaerobic-naturally fermented ginseng extract of the preparation example, was added to an NHEK culture media and treated in the same manner as in (1), and then measured with respect to each gene expression level of Filaggrin, Occludin, and ATP-binding cassette sub-family A member 12 (ATP-binding cassette transporter 12), and the results are shown in FIGS. 5 to 7.
In general terms: In qPCR the cycle at which signal appears reflects the starting amount.

The subject of assay [1] is ATP-binding cassette sub-family A member 12 (ABCA12) gene. Kind of assay: ABCA12 gene expression in NHEK by Taqman real-time PCR. The settings on record: isolated compound added to NHEK culture media, concentration series (FIG. 7). As to the method:
as §1, §2

Another assay relates to Occludin (OCLN) gene. Kind of assay: Occludin (OCLN) gene expression in NHEK by Taqman real-time PCR. The settings on record: isolated compound added to NHEK culture media, concentration series (FIG. 6). How it is done: as §1, §2

For `CC(C)=CCC[C@](C)(O[C@@H]1O[C@H](CO[C@@H]2O[C@H](CO)[C@@H](O)[C@H](O)[C@H]2O)[C@@H](O)[C@H](O)[C@H]1O)[C@H]1CC[C@]2(C)[C@@H]1[C@H](O)C[C@@H]1[C@@]3(C)CC[C@H](O[C@@H]4O[C@H](CO)[C@@H](O)[C@H](O)[C@H]4O)C(C)(C)[C@@H]3CC[C@]12C` [Chemical Formula 1-1], the “gene expression level of Filaggrin (FLG)” value in the assay on Filaggrin (FLG) gene was “increased, as a concentration thereof was increased”. The “gene expression level of ATP-binding cassette sub-family A member 12 (ABCA12)” value in assay [1] is “increased, as a concentration thereof was increased”. Besides, the “gene expression level of Occludin (OCLN)” value with Occludin (OCLN) gene is reported as “increased, as a concentration thereof was increased”.
